Assay results as given in patent US5169845A, “Piperazine derivatives” (John Wyeth & Brother Limited, priority 1990, dated 1992).

Legend:
5-HT1A receptor = target: T1, 5-HT1A receptor (Rattus norvegicus, UniProt P19327); assay: 5-HT1A receptor binding activity in rat hippocampal membrane homogenate
T1 construct: rat hippocampal membrane homogenate; from tissue; host or cells: rat hippocampal membrane homogenate
T1 sequence (P19327 1-422): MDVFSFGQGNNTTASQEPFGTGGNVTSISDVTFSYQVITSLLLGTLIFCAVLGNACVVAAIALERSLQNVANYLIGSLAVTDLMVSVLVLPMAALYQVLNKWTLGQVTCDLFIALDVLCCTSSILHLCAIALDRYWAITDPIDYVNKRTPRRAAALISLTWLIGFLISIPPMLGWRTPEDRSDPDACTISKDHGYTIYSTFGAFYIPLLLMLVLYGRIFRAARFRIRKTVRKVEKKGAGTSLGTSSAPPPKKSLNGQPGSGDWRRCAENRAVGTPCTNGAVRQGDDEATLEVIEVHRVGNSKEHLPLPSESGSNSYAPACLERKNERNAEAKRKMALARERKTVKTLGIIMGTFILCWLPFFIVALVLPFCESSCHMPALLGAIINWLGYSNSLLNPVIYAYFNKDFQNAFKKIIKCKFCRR
Method: The compounds of the invention were tested for 5-HT1A receptor binding activity in rat hippocampal membrane homogenate by the method of B S Alexander and M D Wood, J Pharm Pharmacol, 1988, 40, 888-891.

α1 = assay: affinity for the α1 site (procedure of A L Marrow et al); assay type: binding

| IC50 (5-HT1A receptor) [nM] | IC50 (α1) [nM] | SMILES |
| --- | --- | --- |
| 38 | 2900 | COc1ccccc1N1CCN(CC(C(=O)NC(C)(C)C)c2ccccn2)CC1 (stereo not shown) [Example 1, N-tert-Butyl-3-[4-(2-methoxyphenyl)piperazin-1-yl]-2-(2-pyridyl)propanamide] |
| 0.8 | 147 | COc1ccccc1N1CCN(CCC(C(=O)N2CCCCCC2)c2cccs2)CC1 (stereo not shown) [Example 2, 2,3,4,5,6,7-Hexahydro-1-[2-(2-thiophenyl)-4-(1-(4-(2-methoxyphenyl)piperazinyl))]butyryl-1H-azepine] |
